Assay results published in the kinase profiling compilation of Christmann-Franck et al. (2016).

What was measured:
Test in all cases: radiometric filter-binding kinase assay, Kinase HotSpot
Details in all cases: compound 0.5 µM; ATP 10 µM
BMX (human) = BMX (human) (UniProt P51813)
BRSK2 (human) = BRSK2 (human) (UniProt Q8IWQ3)
CDK2 CCNE1 (human) = CDK2 CCNE1 (human) (UniProt P24941+P24864)
CDK9 CCNT1 (human) = CDK9 CCNT1 (human) (UniProt P50750+O60563)
CSNK2A1 (human) = CSNK2A1 (human) (UniProt P68400)
FER (human) = FER (human) (UniProt P16591)
FGR (human) = FGR (human) (UniProt P09769)
HIPK3 (human) = HIPK3 (human) (UniProt Q9H422)
INSR (human) = INSR (human) (UniProt P06213)
Chain of INSR (human) (P06213 whole entry, looked up): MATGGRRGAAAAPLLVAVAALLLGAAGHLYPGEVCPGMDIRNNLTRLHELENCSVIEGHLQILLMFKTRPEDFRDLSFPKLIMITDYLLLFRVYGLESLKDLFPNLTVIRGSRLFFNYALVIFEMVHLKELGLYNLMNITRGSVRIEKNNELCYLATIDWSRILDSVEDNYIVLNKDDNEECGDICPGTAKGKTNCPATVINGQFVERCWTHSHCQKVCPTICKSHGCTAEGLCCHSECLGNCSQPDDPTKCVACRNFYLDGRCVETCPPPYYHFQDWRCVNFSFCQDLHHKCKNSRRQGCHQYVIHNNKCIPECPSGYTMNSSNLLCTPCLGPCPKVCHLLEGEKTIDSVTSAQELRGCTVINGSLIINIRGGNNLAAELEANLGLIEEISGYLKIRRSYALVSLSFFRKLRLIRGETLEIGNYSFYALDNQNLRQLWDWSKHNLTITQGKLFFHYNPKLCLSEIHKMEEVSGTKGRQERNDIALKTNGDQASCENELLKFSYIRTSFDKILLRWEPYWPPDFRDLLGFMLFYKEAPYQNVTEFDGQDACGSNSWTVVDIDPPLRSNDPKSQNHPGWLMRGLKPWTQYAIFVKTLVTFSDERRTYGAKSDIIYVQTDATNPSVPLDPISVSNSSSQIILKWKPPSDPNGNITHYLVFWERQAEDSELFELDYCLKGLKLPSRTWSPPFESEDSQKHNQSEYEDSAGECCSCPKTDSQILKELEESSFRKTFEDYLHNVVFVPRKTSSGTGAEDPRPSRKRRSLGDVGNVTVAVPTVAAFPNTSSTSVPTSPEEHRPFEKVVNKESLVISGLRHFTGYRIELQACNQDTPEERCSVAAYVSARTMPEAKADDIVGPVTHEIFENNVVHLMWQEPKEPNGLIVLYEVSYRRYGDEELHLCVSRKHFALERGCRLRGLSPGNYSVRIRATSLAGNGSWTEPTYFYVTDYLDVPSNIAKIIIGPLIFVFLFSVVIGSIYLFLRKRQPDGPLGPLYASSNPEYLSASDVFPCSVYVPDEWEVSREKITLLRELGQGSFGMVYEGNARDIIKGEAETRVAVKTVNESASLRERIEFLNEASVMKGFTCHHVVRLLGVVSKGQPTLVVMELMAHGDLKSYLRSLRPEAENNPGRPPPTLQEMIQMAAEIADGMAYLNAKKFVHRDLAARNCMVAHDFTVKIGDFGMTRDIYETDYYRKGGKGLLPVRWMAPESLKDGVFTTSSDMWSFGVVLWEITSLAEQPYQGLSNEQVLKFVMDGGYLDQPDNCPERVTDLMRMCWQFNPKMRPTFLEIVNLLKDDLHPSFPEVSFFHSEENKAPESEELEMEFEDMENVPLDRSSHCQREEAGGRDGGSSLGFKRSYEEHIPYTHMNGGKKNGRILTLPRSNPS

IRAK4 (human) = IRAK4 (human) (UniProt Q9NWZ3)
LRRK2 (human) = LRRK2 (human) (UniProt Q5S007)
[1] = tested on: MAP2K6 (human), P52564 [S207E/T211E]
MAP3K2 (human) = MAP3K2 (human) (UniProt Q9Y2U5)
Chain of MAP3K2 (human) (Q9Y2U5 whole entry, looked up): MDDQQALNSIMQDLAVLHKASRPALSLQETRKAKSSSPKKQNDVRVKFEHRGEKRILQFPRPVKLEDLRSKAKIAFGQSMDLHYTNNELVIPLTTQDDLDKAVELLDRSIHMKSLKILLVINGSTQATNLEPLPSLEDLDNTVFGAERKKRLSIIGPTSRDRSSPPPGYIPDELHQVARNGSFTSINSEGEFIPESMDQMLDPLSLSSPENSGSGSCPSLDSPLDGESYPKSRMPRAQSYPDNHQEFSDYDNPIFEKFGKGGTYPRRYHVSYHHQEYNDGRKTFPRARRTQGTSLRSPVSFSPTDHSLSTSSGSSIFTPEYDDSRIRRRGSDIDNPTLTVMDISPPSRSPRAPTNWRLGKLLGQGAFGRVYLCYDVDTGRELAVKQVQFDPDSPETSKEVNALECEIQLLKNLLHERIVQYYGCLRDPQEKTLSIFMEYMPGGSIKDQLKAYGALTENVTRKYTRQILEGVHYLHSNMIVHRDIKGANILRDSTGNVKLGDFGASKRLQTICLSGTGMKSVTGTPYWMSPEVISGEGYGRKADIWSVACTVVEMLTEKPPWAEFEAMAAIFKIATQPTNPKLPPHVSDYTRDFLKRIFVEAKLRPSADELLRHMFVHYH

MAPK10 (human) = MAPK10 (human) (UniProt P53779)
MAPK11 (human) = MAPK11 (human) (UniProt Q15759)
MAPK14 (human) = MAPK14 (human) (UniProt Q16539)
MARK4 (human) = MARK4 (human) (UniProt Q96L34)
[2] = tested on: MKNK1 (human), Q9BUB5 [T385D; 165-205 del]
NEK1 (human) = NEK1 (human) (UniProt Q96PY6)
NEK2 (human) = NEK2 (human) (UniProt P51955)
PAK2 (human) = PAK2 (human) (UniProt Q13177)
PKN1 (human) = PKN1 (human) (UniProt Q16512)
PKN2 (human) = PKN2 (human) (UniProt Q16513)
PTK6 (human) = PTK6 (human) (UniProt Q13882)
SRC (human) = SRC (human) (UniProt P12931)
STK10 (human) = STK10 (human) (UniProt O94804)
STK16 (human) = STK16 (human) (UniProt O75716)
Chain of STK16 (human) (O75716 whole entry, looked up): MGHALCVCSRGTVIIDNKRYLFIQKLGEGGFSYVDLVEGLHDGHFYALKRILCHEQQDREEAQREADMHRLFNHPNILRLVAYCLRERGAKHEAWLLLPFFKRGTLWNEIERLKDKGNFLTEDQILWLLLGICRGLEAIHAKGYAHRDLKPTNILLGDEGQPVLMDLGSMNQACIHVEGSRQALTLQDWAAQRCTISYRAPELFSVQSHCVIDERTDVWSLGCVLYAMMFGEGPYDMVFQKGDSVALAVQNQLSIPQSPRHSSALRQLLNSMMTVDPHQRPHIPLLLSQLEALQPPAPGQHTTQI

STK17A (human) = STK17A (human) (UniProt Q9UEE5)
TBK1 (human) = TBK1 (human) (UniProt Q9UHD2)
Chain of TBK1 (human) (Q9UHD2 whole entry, looked up): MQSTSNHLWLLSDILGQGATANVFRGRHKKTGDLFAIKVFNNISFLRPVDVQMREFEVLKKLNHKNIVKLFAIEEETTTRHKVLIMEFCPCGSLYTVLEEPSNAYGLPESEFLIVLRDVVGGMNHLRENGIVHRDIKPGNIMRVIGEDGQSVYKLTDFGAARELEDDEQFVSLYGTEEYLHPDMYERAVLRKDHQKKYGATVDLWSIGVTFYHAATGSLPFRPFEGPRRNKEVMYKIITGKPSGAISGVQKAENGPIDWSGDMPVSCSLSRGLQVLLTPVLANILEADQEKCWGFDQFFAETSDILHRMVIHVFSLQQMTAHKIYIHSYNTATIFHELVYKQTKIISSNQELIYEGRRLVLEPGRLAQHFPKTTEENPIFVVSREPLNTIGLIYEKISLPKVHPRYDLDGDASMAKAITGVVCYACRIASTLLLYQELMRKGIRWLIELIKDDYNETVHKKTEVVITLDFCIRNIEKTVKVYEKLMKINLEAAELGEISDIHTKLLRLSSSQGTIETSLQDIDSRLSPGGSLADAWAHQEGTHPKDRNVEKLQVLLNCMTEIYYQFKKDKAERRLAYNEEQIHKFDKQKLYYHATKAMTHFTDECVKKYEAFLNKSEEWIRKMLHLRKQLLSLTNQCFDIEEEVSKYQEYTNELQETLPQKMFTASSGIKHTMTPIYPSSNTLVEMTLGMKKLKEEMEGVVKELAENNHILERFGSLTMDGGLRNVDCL

ZAP70 (human) = ZAP70 (human) (UniProt P43403)
Chain of ZAP70 (human) (P43403 whole entry, looked up): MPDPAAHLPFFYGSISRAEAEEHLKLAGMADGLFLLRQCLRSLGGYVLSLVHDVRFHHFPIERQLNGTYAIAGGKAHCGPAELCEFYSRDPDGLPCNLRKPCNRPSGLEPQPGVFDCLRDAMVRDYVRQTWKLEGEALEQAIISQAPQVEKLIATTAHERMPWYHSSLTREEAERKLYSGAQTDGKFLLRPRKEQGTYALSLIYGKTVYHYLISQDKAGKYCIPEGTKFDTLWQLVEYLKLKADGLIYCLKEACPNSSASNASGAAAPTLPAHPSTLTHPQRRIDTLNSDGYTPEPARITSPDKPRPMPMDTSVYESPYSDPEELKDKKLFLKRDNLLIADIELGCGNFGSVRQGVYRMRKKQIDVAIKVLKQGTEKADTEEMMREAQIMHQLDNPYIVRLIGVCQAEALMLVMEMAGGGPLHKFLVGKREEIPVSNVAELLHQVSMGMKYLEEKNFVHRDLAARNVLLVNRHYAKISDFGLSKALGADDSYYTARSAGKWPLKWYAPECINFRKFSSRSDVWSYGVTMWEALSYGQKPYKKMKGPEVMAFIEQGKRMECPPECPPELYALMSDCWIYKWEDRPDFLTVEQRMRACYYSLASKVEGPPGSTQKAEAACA

BTK (human) = BTK (human) (UniProt Q06187)
CAMK1 (human) = CAMK1 (human) (UniProt Q14012)
CAMK1G (human) = CAMK1G (human) (UniProt Q96NX5)
CDK1 CCNB1 (human) = CDK1 CCNB1 (human) (UniProt P06493+P14635)
CDK4 CCND3 (human) = CDK4 CCND3 (human) (UniProt P30281+P11802)
KIT (human) = KIT (human) (UniProt P10721)
[3] = tested on: PRKCQ (human), Q04759 [P330L]
SRPK2 (human) = SRPK2 (human) (UniProt P78362)
STK11 (human) = STK11 (human) (UniProt Q15831)
MAP2K2 (human) = MAP2K2 (human) (UniProt P36507)

Chain of CDK9 CCNT1 (human) (O60563 whole entry, looked up): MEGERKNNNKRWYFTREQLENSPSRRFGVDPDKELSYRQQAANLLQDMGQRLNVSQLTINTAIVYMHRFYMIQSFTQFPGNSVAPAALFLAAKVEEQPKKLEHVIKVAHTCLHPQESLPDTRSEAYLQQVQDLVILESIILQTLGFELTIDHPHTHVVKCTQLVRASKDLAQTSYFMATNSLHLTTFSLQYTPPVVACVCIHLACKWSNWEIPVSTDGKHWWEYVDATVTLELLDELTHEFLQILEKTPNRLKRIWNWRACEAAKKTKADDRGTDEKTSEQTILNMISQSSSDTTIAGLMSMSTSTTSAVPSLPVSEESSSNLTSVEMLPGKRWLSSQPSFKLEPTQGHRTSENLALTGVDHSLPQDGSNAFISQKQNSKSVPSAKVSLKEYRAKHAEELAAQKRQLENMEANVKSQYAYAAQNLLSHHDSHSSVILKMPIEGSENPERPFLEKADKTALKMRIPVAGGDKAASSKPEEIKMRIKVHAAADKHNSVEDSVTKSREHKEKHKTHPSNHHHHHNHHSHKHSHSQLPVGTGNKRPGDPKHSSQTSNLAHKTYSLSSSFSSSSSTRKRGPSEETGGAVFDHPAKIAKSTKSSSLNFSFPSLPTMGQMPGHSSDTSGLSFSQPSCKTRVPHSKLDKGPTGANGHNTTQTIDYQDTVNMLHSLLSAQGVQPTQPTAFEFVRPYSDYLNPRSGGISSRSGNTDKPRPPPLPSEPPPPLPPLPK
Chain of CDK9 CCNT1 (human) (P50750 whole entry, looked up): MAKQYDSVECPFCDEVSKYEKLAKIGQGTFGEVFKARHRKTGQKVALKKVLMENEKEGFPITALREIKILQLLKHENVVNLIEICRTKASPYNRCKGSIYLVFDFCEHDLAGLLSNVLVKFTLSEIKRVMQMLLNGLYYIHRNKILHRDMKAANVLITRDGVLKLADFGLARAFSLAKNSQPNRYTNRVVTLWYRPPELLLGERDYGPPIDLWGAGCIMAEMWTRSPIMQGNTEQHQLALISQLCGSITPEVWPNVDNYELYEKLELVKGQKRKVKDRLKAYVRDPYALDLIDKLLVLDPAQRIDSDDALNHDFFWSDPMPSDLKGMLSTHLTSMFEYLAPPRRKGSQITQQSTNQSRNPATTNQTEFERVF

Row | SMILES | residual activity (BRSK2 (human)) [%] | residual activity (CDK2 CCNE1 (human)) [%] | residual activity (CDK9 CCNT1 (human)) [%] | residual activity (CSNK2A1 (human)) [%] | residual activity (FER (human)) [%] | residual activity (FGR (human)) [%] | residual activity (HIPK3 (human)) [%] | residual activity (INSR (human)) [%] | residual activity (IRAK4 (human)) [%] | residual activity (LRRK2 (human)) [%] | residual activity [1] [%] | residual activity (MAP3K2 (human)) [%] | residual activity (MAPK11 (human)) [%] | residual activity (MAPK14 (human)) [%] | residual activity (MARK4 (human)) [%] | residual activity [2] [%] | residual activity (NEK1 (human)) [%] | residual activity (NEK2 (human)) [%] | residual activity (PAK2 (human)) [%] | residual activity (PKN1 (human)) [%] | also measured
1 | CO[C@@H]1[C@H](N(C)C(=O)c2ccccc2)C[C@H]2O[C@]1(C)n1c3ccccc3c3c4c(c5c6ccccc6n2c5c31)C(=O)NC4 | 16.4 | 81.2 | 64.2 | 101 | 22.4 | 17.4 | 93.3 | 106 | 71.5 | 8.46 | 91.4 | 30.2 | 97.6 | 93.7 | 3.16 | 92.7 | 66.2 | 101 | 66.6 | 1.37 | residual activity (BMX (human)): 32%; residual activity (MAPK10 (human)): 98.9%; residual activity (PKN2 (human)): 11.4%; residual activity (PTK6 (human)): 96.2%; residual activity (SRC (human)): 39.6%; residual activity (STK10 (human)): 19.3%; residual activity (STK16 (human)): 47.9%; residual activity (STK17A (human)): 62.9%; residual activity (TBK1 (human)): 3.22%; residual activity (ZAP70 (human)): 65.4%
2 | COc1cc(Nc2c(C#N)cnc3cc(OCCCN4CCN(C)CC4)c(OC)cc23)c(Cl)cc1Cl | 94.2 | 98.3 | 87 | 116 | 54.6 | 11.5 | 93.5 | 69.8 | 63.2 | 30.1 | 93.4 | 23.5 | 101 | 88.6 | 60.6 | 96.9 | 15.2 | 8.56 | 69.4 | 74.2 | residual activity (BTK (human)): 5.69%; residual activity (CAMK1 (human)): 68.9%; residual activity (CAMK1G (human)): 82.7%; residual activity (CDK1 CCNB1 (human)): 95.9%; residual activity (CDK4 CCND3 (human)): 103%; residual activity (KIT (human)): 93.6%; residual activity (PKN2 (human)): 105%; residual activity [3]: 71.5%; residual activity (PTK6 (human)): 93.1%; residual activity (SRC (human)): 6.05%; residual activity (SRPK2 (human)): 101%; residual activity (STK10 (human)): 12.6%; residual activity (STK11 (human)): 98.1%; residual activity (STK16 (human)): 85.1%; residual activity (STK17A (human)): 107%; residual activity (TBK1 (human)): 65.7%; residual activity (ZAP70 (human)): 101%
3 | C[C@@H]1CCN(C(=O)CC#N)C[C@@H]1N(C)c1ncnc2[nH]ccc12 | 86.9 | 90.7 | 100 | 104 | 104 | 91.1 | 100 | 101 | 88.5 | 51.3 | 99.4 | 123 | 103 | 93.4 | 81.7 | 89.9 | 84.6 | 103 | 111 | 16.5 | residual activity (BMX (human)): 111%; residual activity (CAMK1 (human)): 99.3%; residual activity (CAMK1G (human)): 97.8%; residual activity (CDK1 CCNB1 (human)): 90.8%; residual activity (CDK4 CCND3 (human)): 99.9%; residual activity (KIT (human)): 98.9%; residual activity (MAP2K2 (human)): 117%; residual activity (MAPK10 (human)): 100%; residual activity [3]: 89%; residual activity (PTK6 (human)): 101%; residual activity (SRC (human)): 99.8%; residual activity (SRPK2 (human)): 90.7%; residual activity (STK10 (human)): 92.9%; residual activity (STK11 (human)): 104%; residual activity (STK16 (human)): 94.7%; residual activity (STK17A (human)): 106%; residual activity (TBK1 (human)): 92.5%; residual activity (ZAP70 (human)): 105%
